According to US7407752B2, “Oligonucleotide complexes for use as anti-viral therapeutics” (priority 2003, dated 2008):
Several values for one entry are separate records, joined by “and”; a condition that tells them apart may be missing. Equal entries are not always repeated.

How the values were obtained:
[1] = intravenous; cited from earlier work
HSV-1 = HSV-1 plaque reduction on Vero cells after incubation with TFO and ultraviolet-A radiation; conditions: for viral titer as percent of the unirradiated virus only control: 1 μM TFO
Experimental: Viral titers were determined by plaque counts on Vero cell monolayers.
3000 PFU/ml of HSV-1 were incubated with 1 μM TFO-3 (SEQ ID 2) at room temperature, N=5 replications per group. Viral killing (as measured by plaque-reduction) was effected by exposing the mixture to ultraviolet-A radiation for 0, 20 and 40 minutes at room temperature. HSV-1 titers were determined by plaque assay on Vero cells. […] The results were calculated as a percent of the unirradiated (0 min.) “virus only” control titers±SEM. Statistical comparisons were made between the “virus only” and “virus+TFO-3 (SEQ ID 2)” groups at each time point using an unpaired two-tailed Student's T-Test.
3000 PFU/ml of HSV-1 was incubated with 1 μM TFO-3 (SEQ ID 2) or a (scrambled) control oligonucleotide. Viral killing was affected by exposing the mixture to ultraviolet-A radiation for 40 min. Results are expressed as percent of the “virus only” control titers±SEM. Statistical comparisons were made to the “virus only” group using the two-tailed Student's T-Test.
HSV-1 was incubated with 1 μM TFO-3 (SEQ ID 2) with and without exposure to ultraviolet-A radiation for 40 minutes at room temperature. Results are expressed as mean viral titers±standard errors. Statistical comparisons were made using the two-tailed Student's T-Test.
All the groups were exposed to ultraviolet-A radiation for 40 minutes at room temperature. Results are expressed as mean viral titers ±standard error of the mean. Statistical comparisons were made using the two-tailed Mann-Whitney test for non-parametric data.

[2] = tested on: HSV-1 LAT target sequence duplex; test: Triplex formation in vitro (native polyacrylamide gel); format: binding
Experimental: The target sequence bound by TFO-3 (SEQ ID 2) yielded a relatively clean duplex when end-labeled with ^32P and allowed to anneal to its purine complement. One fmole […] [The absolute amount of target DNA was one femtomole=1×10^−15 moles placed in solution to a concentration of 1.0 nM=1.0 nanomoles/liter] of this duplex was then incubated at 37 degrees C. with increasing concentrations of the […] in a binding buffer containing 10 mM Tris, pH 7.5, 1 mM spermine, 20 mM KCl, and 10% sucrose, according to a published protocol. The DNA complexes—single-strand, double-strand, and triplex—were separated in a native polyacrylamide gel. Triplex DNA complex formation was detected at a triplex:duplex ratio of 10:1. Triplex formation was virtually complete at a triplex:duplex ratio of 100:1, corresponding to a triplex oligonucleotide concentration of 100 nM, consistent with other reports in the literature and below that believed to be achievable in vivo.

TG neurons [3] = test: Movement of 32P-labeled TFO-3 into rat TG neuron cultures; format: cell-based
[4] = tested on: HSV-1 Target-3 reporter construct C2A; test: Luciferase reporter transcription inhibition, construct C2A in HEK-293; format: cell-based, human; conditions: HEK-293, 1 or 10 μM TFO, 24 hours
[5] = tested on: parent (control) reporter construct pGL3; test: Luciferase reporter transcription inhibition, parent construct pGL3 in HEK-293; format: cell-based, human; conditions: HEK-293, 1 or 10 μM TFO, 24 hours, construct lacking HSV-1 target sequence
TG neurons [6] = test: Ex vivo delivery of TFO-3 to latently infected mouse TG; conditions: 42 micromolar, 1.5 hrs ex vivo
Experimental: Ex vivo delivery of TFOs was then performed by incubating latently infected mouse TG ex vivo for 1.5 hrs in a 42 micromolar solution of TFO-3.

[7] = Systemic (intraperitoneal) delivery of Cy5-TFO-3 to mouse TG, fluorescence imaging; format: in vivo, Balb/c mice; conditions: 167 mcg intraperitoneal, 6 or 24 hours after injection
Experimental: Cy5-labeled TFO-3 (SEQ ID 2) was then synthesized and HPLC purified. 167 mcg of Cy5-TFO-3 (SEQ ID 2) was then systemically administered via an intraperitoneal injection into uninfected and latently infected Balb/c mice. The animals were sacrificed and dissected 6 or 24 hours after injection and the TG's imaged under a red laser light source (680 nm). An uninjected, uninfected mouse was also imaged as a control for autofluorescence (nil). Fluorescence of Cy5 was detectable in the TG's of Cy5-labeled TFO-3 (SEQ ID 2) treated mice.

[8] = Example 9, 1 μM, UVA 40 minutes
[9] = 0.5 nM starting concentration, +20 ng/ml NGF

## Nc1nc2c(ncn2COCCO)c(=O)[nH]1 [Acyclovir]
[1]
  steady-state trough concentration: 2 μg/ml and 8 μM

## TFO-1: purine motif triplex-forming oligonucleotide binding a target site in the HSV-1 LAT domain, SEQ ID 1 (GAAGAGGGGGGGGGGAAGAAG; DNA, backbone not given here)
HSV-1; [8]
  antiviral effect: no measurable antiviral effect

## TFO-3: purine motif triplex-forming oligonucleotide binding a target site in the HSV-1 LAT domain, SEQ ID 2 (GGGAGGAGGGAGGGAAGGAGGGGG; further chemistry not given here)
[2]; 37 degrees C., target duplex 1.0 nM
  TFO concentration at which triplex formation is virtually complete: 100 nM
[2]; HSV-1 LAT target
  TFO concentration at which triplex formation begins: 10 nM
TG neurons [3]; [9]
  average cellular oligonucleotide (32P) concentration: 95 nM
  average oligonucleotide (32P) concentration in the supernatants: 0.44 nM
TG neurons [3]; 0.5 nM, 2, 6 or 24 hours
  uptake into the neurons: progressively taken up
[4]
  luciferase production: significantly inhibited
[5]
  luciferase production: did not inhibit
TG neurons [6]
  fluorescence in TG neurons: Intense red fluorescence
HSV-1; UVA 0 min
  viral titer as percent of the unirradiated virus only control: approximately 80%
HSV-1; UVA 20 min
  viral titer as percent of the unirradiated virus only control: approximately 50%
HSV-1; UVA 40 min
  viral titer as percent of the unirradiated virus only control: ~30%
HSV-1; Example 7, strain 17 syn+, 1 μM, UVA 40 min
  percent of virus only control viral titer: approximately 20%
HSV-1; Example 8, 1 μM, UVA 40 minutes
  viral killing (plaque-reduction) added to that of UVA alone: 40%
HSV-1; [8]
  reduction of viral titers: 45%

## Cy5-labeled TFO-3: TFO-3 (SEQ ID 2) labeled with Cy5, HPLC purified (GGGAGGAGGGAGGGAAGGAGGGGG; DNA, backbone not given here; Cy5 label attached, triplex-forming oligonucleotide, further chemistry not fully specified)
[7]
  fluorescence of Cy5 in the TG's: detectable
